Data from US11413285B2, “PDE III inhibitors for treatment of asymptomatic heart failure” (priority 2004, dated 2022).
Where a name gives a salt, the structure may show the parent alone. Read-outs that look alike come from different tables or passages of the source.

How the values were obtained:
[1] = system: dogs with clinically overt heart failure due to valve insufficiency; test: Double-blind randomized positive controlled multi-centre field trial, pimobendan versus benazepril; format: in vivo, dog; details: for dogs that died or were euthanised due to cardiac reasons: 56-days study period, 41 dogs pimobendan group, 35 dogs benazepril group; for ISACHC classification Ib (Score=2), no clinical symptoms, share of cases / overall efficacy rated as very good or good, share of cases: Day 56; for ISACHC heart failure classification improved, share of cases: after the 56 day treatment period; for median survival time: long-term survival data
Description: A double-blind randomized positive controlled multi-centre field trial has been carried out in order to evaluate the clinical efficacy of pimobendan treatment at a daily dose of 0.4-0.6 mg/kg in comparison to an angiotensin-converting-enzyme (ACE) inhibitor treatment with benazepril hydrochloride at a daily dose of approximately 0.25-0.5 mg/kg body weight. Both treatments could be combined with furosemide (up to 8 mg/kg per day) or anti-arrhythmic drugs as appropriate. The study was conducted at 11 centers in Europe by experienced veterinary cardiologists under the rules of Good Clinical Practice (GCP). Mandatory minimum duration of treatment was 56 days for each patient. Dogs were examined on Day 0 prior to first treatment and on Day 7 and 56 after initiation of therapy. In order to obtain long-term survival data, the investigator had the option to continue therapy after Day 56. In the optional study period treatment code for the animal was decoded, as it was not allowed to add pimobendan to the benazepril group, in order to maintain an appropriate […] control group. All other licensed concomitant therapies were allowed. For survival analysis, animals that dropped out or changed treatment due to therapy failure were also rated as dead. However, these cases were statistically evaluated as censored data.
Primary parameter for conclusion on efficacy was the clinical severity of heart failure symptoms, classified according to the recommendations of the International Small Animal Cardiac Health Council (ISACHC). Secondary parameters were exercise tolerance, demeanor, findings of the respiratory and circulatory system, overall efficacy rating, as well as, echocardiography data.
Overall 76 dogs, 41 dogs in the pimobendan group and 35 dogs in the benazepril group were included. […] Mean duration of symptoms prior to inclusion was 4.05 months in the pimobendan and 2.77 months in the benazepril group. There were no clinically relevant differences between the groups prior to initiation of therapy in any of the parameters investigated.
The radiographs have been made in a left to right lateral view. For the determination of cardiac size a vertebral scale system was used.
In the lateral radiographs, the long axis of the heart (L) was measured with a caliper extending from the ventral aspect of the left main stem bronchus (tracheal bifurcation hilus, carina) to the most distant contour of the left ventricular apex. The caliper was repositioned along the vertebral column beginning at the cranial edge of the 4th thoracic vertebra. The length of the heart was recorded as the number of vertebrae caudal of that point and estimated to the nearest 0.1 of a vertebra. The maximum perpendicular short axis (S) was measured in the same manner beginning at the 4th thoracic vertebra.
The length in vertebrae (v) of the long and short axes were then added to obtain a vertebral heart sum (VHS) which provided a single number representing heart size proportionate to the size of the dog. The normal range of VHS in healthy dogs is 8.5 v to 10.5 v (mean of 9.7 v).

[2] = system: dogs with DCM; details: dogs with DCM in the LIVE study; cited from earlier work
[3] = system: Cocker spaniels and Dobermanns with DCM; details: for mean survival time / survival time, range: in addition to digoxin, enalapril, furosemide
Excerpt: A double-blind study has been carried out in order to evaluate the long-term efficacy and tolerance to pimobendan and its effect on long-term survival in cocker spaniels and Dobermanns with DCM.
Materials and Methods: Cocker spaniels (n=10) and Dobermanns (n=10) presenting to the Cardiopulmonary Service of the R(D)SVS with DCM were recruited for the study with owners' consent. After stabilization on conventional therapy with digoxin, enalapril, and furosemide, dogs received in addition either pimobendan (Vetmedin®) or placebo using a double-blind study design.

[4] = system: dogs suffering of occult dilated cardiomyopathy; test: Study in dogs with occult dilated cardiomyopathy (ISACHC class I); format: in vivo, dog
Excerpt: A study is done with pimobendan ([…]®) in dogs suffering of occult dilated cardiomyopathy. Inclusion criteria were dogs which are diagnosed to have a congestive heart failure of class I according to the […]-score due to dilated cardiomyopathy (DCM). Dogs having a having an asymptomatic (occult) heart failure, e.g. asymptomatic DCM must have reduced contractility of the heart or other signs of reduced cardiac efficacy such as volume overload or ventricle dilatation as confirmed by echocardiography. The dogs stay under mono-therapy until signs of congestive heart failure are developing, deteriorate to heart insufficiency score ([…]) class II or III a or b. After confirmation of the congestion by X-ray-radiography the dogs receive furosemid treatment or if the clinical or echocardiographic results makes the addition of another heart failure treatment necessary (primary endpoint). The dogs will be investigated at day 0 prior to first treatment and then approximately 3 month post initiation of the therapy. […] An Echo is performed prior to initiation of therapy (Day 0) and at the following visits to support the clinical diagnosis and to evaluate the effect of the drugs on the contractility of the heart. The echocardiography is performed according to the cardiologic case report form for Irish Wolfhounds. The primary parameter investigated will be the heart insufficiency score ([…]). […]

[5] = system: human patients with heart failure; details: long-term oral use; cited from earlier work
[6] = Visit 1 (Day 0, prior to first treatment)

## CCOC(=O)[C@H](CCc1ccccc1)N[C@H]1CCc2ccccc2N(CC(=O)O)C1=O [benazepril, benazepril hydrochloride]
[1]
  dogs that died or were euthanised due to cardiac reasons: 7 dogs
  ISACHC classification Ib (Score=2), no clinical symptoms, share of cases: 48%
  overall efficacy rated as very good or good, share of cases: 41%
  ISACHC heart failure classification improved, share of cases: 56%
  median survival time: 228 days

## CCOC(=O)[C@H](CCc1ccccc1)N[C@@H](C)C(=O)N1CCC[C@H]1C(=O)O [enalapril]
[2]
  time to treatment failure: 142.8 days

## COc1ccc(-c2nc3ccc(C4=NNC(=O)CC4C)cc3[nH]2)cc1 (stereo not drawn) [pimobendan, 4,5-dihydro-6-[2-(4-methoxyphenyl)-1H-benzimidazol-5-yl]-5-methyl-3(2H)-p-yridazone]
[3]; Dobermanns with DCM
  mean survival time: 280 days
  survival time, range: 42 to 369 days
[3]; both breeds, addition to standard treatment regimen
  NYHA-class status of the patient: significant improvement
[3]; cocker spaniels with DCM
  mean survival time: 612 days
  survival time, range: 61 to 1428 days
[3]; dog, in vivo
  tolerance / treatment-related adverse effects: well tolerated and no treatment-related adverse effects were noted
[1]
  dogs that died or were euthanised due to cardiac reasons: 2 dogs
  ISACHC classification Ib (Score=2), no clinical symptoms, share of cases: 76%
  overall efficacy rated as very good or good, share of cases: 85%
  ISACHC heart failure classification improved, share of cases: 84%
  median survival time: 430 days
[1]; [6]
  vertebral heart sum, Max.: 14.5 v
  vertebral heart sum, Mean: 11.83 v
  vertebral heart sum, Median: 11.60 v
  vertebral heart sum, Min.: 9 v
[1]; Visit 3 (Day 56)
  vertebral heart sum, Max.: 14.1 v
  vertebral heart sum, Mean: 11.71 v
  vertebral heart sum, Median: 11.60 v
  vertebral heart sum, Min.: 9.0 v
[1]; Visit 3-1 (Day 56 minus Day 0)
  change in mean heart size (vertebral heart sum), Mean: −0.15 v
  vertebral heart sum, change from baseline, Max.: 0.8 v
  vertebral heart sum, change from baseline, Median: 0.00 v
  vertebral heart sum, change from baseline, Min.: −1.9 v
[4]; dogs with asymptomatic DCM
  Left Ventricular Reverse Remodeling (LVRR), share of treated dogs: ~80%
[4]; interim analysis after 4 years, mono-therapy
  dogs that went into the state of clinical symptoms (Class II): significantly less dogs
[5]
  effects on survival: without significantly adverse effects on survival
  exercise tolerance and quality of life: improvement in exercise tolerance and quality of life
